The subject of assay [1] is Human vascular endothelial cells and fibroblasts (co-culture). The assay can be described thus: Experiment on vascularization inhibition (lumen formation, KURABO kit), Experiments 2 and 5. The format is cell-based. Particulars: Suramin 50 μM final, VEGF-A 5 ng/ml, 11-day culturing. The procedure:
1,000 μg of each specimen was weighed and dissolved in 1 ml of a culture medium. The resulting culture medium was sterilized by filtration (0.22 μm), diluted 10 fold (three times), to prepare samples at concentrations of 10 μg/ml to 1,000 μg/ml.
Human vascular endothelial cells and fibroblasts were co-cultured at their optimal concentrations. At the proliferation state at an early stage of luminal formation, the individual samples were added for 11-day culturing (the culture media containing the samples were exchanged 4, 7 and 9 days later). […] As standards for the evaluation, VEGF-A promoting luminal formation was added at […], while suramin inhibiting luminal formation was added at 50 μM, in the same manner. A control was prepared without any addition. Regarding the effect on inhibiting vascularization, the formed lumen-like network structure was evaluated.
Method: A kit manufactured by KURABO was used for measurement. […] VEGF as a vascularization promoting factor and suramin as an agent for suppressing vascularization were concurrently present in a control, so as to compare the lumen formation state in the co-existence of VEGF and each sample.
Concentration of a sample added: 10, 100 and 1,000 μg/ml (Suramin was added in all of the cases at the same concentration; 50 μM)
VEGF-A as a vascularization-promoting factor was added at an amount of 5 ng/ml (as the final concentration) Suramin as a positive control with an observed effect on inhibiting vascularization was added at an amount of 50 μM (as the final concentration)
1,000 μg of each specimen was weighed and dissolved in 1 ml of a culture medium. The resulting culture medium was sterilized by filtration (0.22 μm) and diluted 10 fold (three times), to prepare samples at concentrations of 10 μg/ml to 1,000 μg/ml.
Concentration of a sample added: 10, 100 and 1000 μg/ml (Suramin was added in all of the cases at the same concentration; 50 μM)

For assay [2] the test system is unchanged. The assay can be described thus: Experiment on vascularization inhibition (luminal formation), Experiments 1 and 4. The format is cell-based. Particulars: suramin 25 μM final, VEGF-A 5 ng/ml, 11-day culturing; for AREA (area of vascular tube region): smaller = larger inhibition. On the procedure: 1,000 μg of each specimen was weighed and dissolved in 1 ml of a culture medium. The resulting culture medium was sterilized by filtration (0.22 μm), diluted 10 fold (three times), to prepare samples at concentrations of 10 μg/ml to 1,000 μg/ml as shown in Table 1 (the contents of the test samples for use in assessing the effect on inhibiting vascularization).
Human vascular endothelial cells and fibroblasts were co-cultured at their optimal concentrations. At the proliferation state at an early stage of luminal formation, the individual samples (1-1-1, the negative controls, the positive controls) were added for 11-day culturing (the culture media containing the samples were exchanged 4, 7 and 9 days later). […] So as to evaluate the effect on inhibiting vascularization, the formed lumen-like network structure was observed.
Photographs of the vascular tube tissues were incorporated as digital data, to measure the area of a vascular tube region (black region) at several points randomly selected to determine the effect on inhibiting vascularization.
VEGF-A as a vascularization-promoting factor was added at an amount of 5 ng/ml (as the final concentration) Suramin as a positive control with an observed effect on inhibiting vascularization was added at an amount of 25 μM (as the final concentration)
1,000 μg of each specimen was weighed and dissolved in 1 ml of a culture medium. The resulting culture medium was sterilized by filtration (0.22 μm), diluted 10 fold (three times), to prepare samples at concentrations of 10 μg/ml to 1,000 μg/ml as shown in Table 4 (the contents of test samples for assessing vascularization inhibitory effect).
Human vascular endothelial cells and fibroblasts were co-cultured at their optimal concentrations. At the proliferation state at an early stage of luminal formation, the individual samples (1-1-1, the negative controls, the positive controls) were added for 11-day culturing (the culture media containing the samples were exchanged 4, 7 and 9 days later). […] Regarding the effect on inhibiting vascularization, the formed lumen-like network structure was evaluated.
Photographs of blood tube tissues were incorporated as digital data, to measure the area of the blood tube region (black part) at several positions randomly selected, to determine the inhibitory effect of vascularization.

In assay [1], `Cc1ccc(C(=O)Nc2ccc(S(=O)(=O)O)c3cc(S(=O)(=O)O)cc(S(=O)(=O)O)c23)cc1NC(=O)c1cccc(NC(=O)Nc2cccc(C(=O)Nc3cc(C(=O)Nc4ccc(S(=O)(=O)O)c5cc(S(=O)(=O)O)cc(S(=O)(=O)O)c45)ccc3C)c2)c1` [Suramin, suramin] had an AREA of 30401, a JOINT of 413 and an LENGTH of 6396. In assay [2] (listed as A3), the JOINT came to 11, the LENGTH was found to be 4583, the PATH was determined as 107 and the “AREA (area of vascular tube region)” value is listed as 27940. Further, in assay [2] (listed as A4), the JOINT came to 16, the LENGTH was 5311, the PATH was determined as 128 and the “AREA (area of vascular tube region)” value worked out at 33301.

These data come from patent publication US20090263356A1, “ANTI-ANGIOGENIC COMPOSITION COMPRISING GRAIN-DERIVED COMPONENT AS ACTIVE INGREDIENT” (SANWA SHURUI CO., LTD., priority 2005, published 2009).
